Measured values: patent publication US9725442B2, “Heterocyclic derivative having PGD2 receptor antagonist activity” (Shionogi & Co., Ltd., priority 2011, dated 2017)
Where two headings read alike, the source gives them in different places.

What was measured:
CRTH2 = CRTH2 (Homo sapiens (Human), UniProt Q9Y5Y4); assay: CRTH2 receptor binding inhibitory activity ([3H]-PGD2 displacement, membranes of CRTH2-expressing K562 cell); conditions: [3H]-PGD2 displacement, membrane of CRTH2-expressing K562 cell, read-out: Ki
Experimental: Cell membrane was prepared from CRTH2-expressing K562 cell. The cell membrane (20 μg/well) was mixed with reaction buffer (50 mM Tris/HCl, pH 7.4, 10 mM MgCl2). Then, [^3H]-PGD2 was added to the mixture and incubated for 60 min at room temperature. […] Then, the mixture was filtrated with glass paper immediately. The filter paper was washed several times and radio activity on the filter was measured. Specific binding was defined as difference between total and non-specific binding (radio activity with 10 μM PGD2). Ki values for each compound were calculated from displacement curve.

Human DP1 receptor = Human DP1 receptor (Homo sapiens (Human), UniProt Q13258); assay: Human DP1 inhibitory activity in DP1-expressing cell (PGD2-induced cAMP); format: cell-based
Experimental: Compounds were categorized as AA (cAMP is less than 100 nM) and A (cAMP is more than 100 nM and less than 5000 nM) as shown in Table 99 and 100.

[1] = CRTH2 receptor binding, categorized AAAA/AAA
[2] = category of cAMP IC50, human DP1 receptor expressing Jurkut cell
[3] = IC50 of PGD2 (60 nM)-induced cAMP increase, human DP1 receptor expressing Jurkut cell

Sequence of Human DP1 receptor (Q13258 whole entry): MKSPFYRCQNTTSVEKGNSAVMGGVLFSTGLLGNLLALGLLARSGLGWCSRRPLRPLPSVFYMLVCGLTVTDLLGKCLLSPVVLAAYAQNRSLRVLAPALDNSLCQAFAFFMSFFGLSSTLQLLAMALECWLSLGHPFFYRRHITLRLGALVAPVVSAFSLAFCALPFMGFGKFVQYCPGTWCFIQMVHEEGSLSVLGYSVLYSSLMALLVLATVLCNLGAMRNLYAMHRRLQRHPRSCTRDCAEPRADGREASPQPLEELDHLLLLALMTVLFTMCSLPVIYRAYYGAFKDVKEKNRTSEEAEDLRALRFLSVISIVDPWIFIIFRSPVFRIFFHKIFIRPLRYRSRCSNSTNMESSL
Sequence of CRTH2 (Q9Y5Y4 whole entry): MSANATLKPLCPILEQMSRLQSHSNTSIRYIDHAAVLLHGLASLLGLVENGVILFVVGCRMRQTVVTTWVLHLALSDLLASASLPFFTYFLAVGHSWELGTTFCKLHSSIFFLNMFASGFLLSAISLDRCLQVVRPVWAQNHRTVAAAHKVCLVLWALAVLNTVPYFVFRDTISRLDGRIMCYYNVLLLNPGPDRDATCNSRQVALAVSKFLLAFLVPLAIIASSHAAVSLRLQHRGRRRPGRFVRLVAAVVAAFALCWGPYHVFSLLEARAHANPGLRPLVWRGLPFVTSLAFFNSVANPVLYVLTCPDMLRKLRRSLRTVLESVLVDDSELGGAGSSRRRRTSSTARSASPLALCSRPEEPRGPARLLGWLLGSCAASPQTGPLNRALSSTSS

CCOc1ccc(S(=O)(=O)N2C[C@H](n3nc(CC(=O)O)c4ccccc43)[C@@](C)(F)C2)cn1 (racemic) [Compound I-207]
Ki (CRTH2; [1]): < 100 nM | IC50 (Human DP1 receptor; [2]): 100 to 5000 nM

COc1ccc(S(=O)(=O)N2C[C@H](n3nc(CC(=O)O)c4ccccc43)[C@@](C)(F)C2)cn1 (racemic) [Compound I-208]
Ki (CRTH2; [1]): < 100 nM | IC50 (Human DP1 receptor; [2]): 100 to 5000 nM

C[C@]1(F)CN(S(=O)(=O)c2ccc(F)cc2)C[C@@H]1n1nc(CC(=O)O)c2ccccc21 (racemic) [Compound I-227]
Ki (CRTH2; [1]): < 100 nM | IC50 (Human DP1 receptor; [2]): 100 to 5000 nM

CCOc1ccc(S(=O)(=O)N2C[C@H](n3nc(CC(=O)O)c4ccccc43)[C@@](C)(F)C2)cc1 (racemic) [Compound I-228]
Ki (CRTH2; [1]): < 100 nM | IC50 (Human DP1 receptor; [2]): < 100 nM

CCOc1ccc(S(=O)(=O)N2C[C@@H](C)[C@@H](n3nc(C(O)C(=O)O)c4ccccc43)C2)cc1 (single isomer, unassigned) [Compound I-306]
Ki (CRTH2; [1]): 100 to 5000 nM | IC50 (Human DP1 receptor; [2]): 100 to 5000 nM

CCOc1ccc(S(=O)(=O)N2C[C@@H](C)[C@@H](n3nc(C(O)C(=O)O)c4ccccc43)C2)cc1 (single isomer, unassigned) [Compound I-307]
Ki (CRTH2; [1]): 100 to 5000 nM | IC50 (Human DP1 receptor; [2]): 100 to 5000 nM

CC(C)Oc1ccc(S(=O)(=O)N2CC[C@@H](n3nc(CC(=O)O)c4ccc(F)cc43)[C@H]2C)cc1 [Compound I-1]
Ki (CRTH2; [1]): 100 to 5000 nM | IC50 (Human DP1 receptor; [2]): 100 to 5000 nM

CC(C)Oc1ccc(S(=O)(=O)N2C[C@H](n3nc(CC(=O)O)c4ccc(F)cc43)C[C@H]2C(N)=O)cc1 [Compound I-2]
Ki (CRTH2; [1]): 100 to 5000 nM | IC50 (Human DP1 receptor; [2]): 100 to 5000 nM

CC(C)Oc1ccc(S(=O)(=O)N2C[C@H](n3nc(CC(=O)O)c4ccc(F)cc43)C[C@@H]2C(N)=O)cc1 [Compound I-3]
Ki (CRTH2; [1]): 100 to 5000 nM | IC50 (Human DP1 receptor; [3]): 350 nM | IC50 (Human DP1 receptor; [2]): 100 to 5000 nM

CNC(=O)[C@@H]1C[C@@H](n2nc(CC(=O)O)c3ccc(F)cc32)CN1S(=O)(=O)c1ccc(OC(C)C)cc1 [Compound I-4]
Ki (CRTH2; [1]): 100 to 5000 nM | Ki (CRTH2): 320 nM | IC50 (Human DP1 receptor; [2]): 100 to 5000 nM

CC(C)Oc1ccc(S(=O)(=O)N2C[C@H](n3nc(CC(=O)O)c4ccc(F)cc43)C[C@H]2C(=O)N(C)C)cc1 [Compound I-5]
Ki (CRTH2; [1]): 100 to 5000 nM | IC50 (Human DP1 receptor; [2]): 100 to 5000 nM

CC(C)NC(=O)[C@@H]1C[C@@H](n2nc(CC(=O)O)c3ccc(F)cc32)CN1S(=O)(=O)c1ccc(OC(C)C)cc1 [Compound I-6]
Ki (CRTH2; [1]): 100 to 5000 nM | IC50 (Human DP1 receptor; [2]): 100 to 5000 nM

CC(C)Oc1ccc(S(=O)(=O)N2C[C@@H](n3nc(CC(=O)O)c4ccc(F)cc43)C[C@H]2C)cc1 [Compound I-8]
Ki (CRTH2; [1]): < 100 nM | IC50 (Human DP1 receptor; [2]): 100 to 5000 nM

CC(C)Oc1ccc(S(=O)(=O)N2C[C@H](n3nc(CC(=O)O)c4ccc(F)cc43)C[C@H]2C)cc1 [Compound I-10]
Ki (CRTH2; [1]): < 100 nM | Ki (CRTH2): 8.2 nM | IC50 (Human DP1 receptor; [2]): 100 to 5000 nM

CC(C)Oc1ccc(S(=O)(=O)N2C[C@H](n3nc(CC(=O)O)c4ccc(F)cc43)C[C@@H]2CO)cc1 [Compound I-11]
Ki (CRTH2; [1]): 100 to 5000 nM | IC50 (Human DP1 receptor; [3]): 99 nM | IC50 (Human DP1 receptor; [2]): < 100 nM

CC(C)Oc1ccc(S(=O)(=O)N2C[C@H](n3nc(CC(=O)O)c4ccc(F)cc43)C[C@H]2CF)cc1 [Compound I-12]
Ki (CRTH2; [1]): < 100 nM | IC50 (Human DP1 receptor; [2]): 100 to 5000 nM

CC(C)Oc1ccc(S(=O)(=O)N2C[C@H](n3nc(CC(=O)O)c4ccc(F)cc43)C[C@@H]2CF)cc1 [Compound I-13]
Ki (CRTH2; [1]): < 100 nM | IC50 (Human DP1 receptor; [2]): < 100 nM

CC(C)Oc1ccc(S(=O)(=O)N2C[C@H](n3nc(CC(=O)O)c4ccc(F)cc43)C[C@H]2CC#N)cc1 [Compound I-14]
Ki (CRTH2; [1]): < 100 nM | IC50 (Human DP1 receptor; [2]): 100 to 5000 nM

CC(C)Oc1ccc(S(=O)(=O)N2C[C@H](n3nc(CC(=O)O)c4cc(Cl)ccc43)C[C@H]2C)cc1 [Compound I-15]
Ki (CRTH2; [1]): < 100 nM | Ki (CRTH2): 56 nM | IC50 (Human DP1 receptor; [2]): 100 to 5000 nM

COC[C@@H]1C[C@@H](n2nc(CC(=O)O)c3ccc(F)cc32)CN1S(=O)(=O)c1ccc(OC(C)C)cc1 [Compound I-16]
Ki (CRTH2; [1]): < 100 nM | IC50 (Human DP1 receptor; [2]): 100 to 5000 nM

COC[C@H]1C[C@@H](n2nc(CC(=O)O)c3ccc(F)cc32)CN1S(=O)(=O)c1ccc(OC(C)C)cc1 [Compound I-17]
Ki (CRTH2; [1]): < 100 nM | IC50 (Human DP1 receptor; [2]): < 100 nM

CC(C)Oc1ccc(S(=O)(=O)N2C[C@H](n3nc(CC(=O)O)c4ccc(F)cc43)C[C@@H]2CC#N)cc1 [Compound I-18]
Ki (CRTH2; [1]): < 100 nM | IC50 (Human DP1 receptor; [2]): 100 to 5000 nM

CC(C)Oc1ccc(S(=O)(=O)N2C[C@H](n3nc(CC(=O)O)c4ccc(F)cc43)C[C@@H]2Cn2ccnc2)cc1 [Compound I-20]
Ki (CRTH2; [1]): < 100 nM | IC50 (Human DP1 receptor; [2]): 100 to 5000 nM

CC(C)Oc1ccc(S(=O)(=O)N2C[C@H](n3nc(CC(=O)O)c4ccc(F)cc43)C[C@@H]2C(F)F)cc1 [Compound I-22]
Ki (CRTH2; [1]): < 100 nM | IC50 (Human DP1 receptor; [2]): < 100 nM

Cc1cccn(C[C@H]2C[C@@H](n3nc(CC(=O)O)c4ccc(F)cc43)CN2S(=O)(=O)c2ccc(OC(C)C)cc2)c1=O [Compound I-23]
Ki (CRTH2; [1]): < 100 nM | IC50 (Human DP1 receptor; [2]): 100 to 5000 nM

CC(C)Oc1ccc(S(=O)(=O)N2C[C@H](n3nc(CC(=O)O)c4ccc(F)cc43)CC2(C)C)cc1 [Compound I-24]
Ki (CRTH2; [1]): < 100 nM | IC50 (Human DP1 receptor; [2]): 100 to 5000 nM

CC(C)Oc1ccc(S(=O)(=O)N2C[C@H](O)[C@@H](n3nc(CC(=O)O)c4ccc(F)cc43)C2)cc1 [Compound I-25]
Ki (CRTH2; [1]): < 100 nM | IC50 (Human DP1 receptor; [2]): 100 to 5000 nM

CC(C)Oc1ccc(S(=O)(=O)N2CC(F)[C@@H](n3nc(CC(=O)O)c4ccc(F)cc43)C2)cc1 (stereo partly shown) [Compound I-26]
Ki (CRTH2; [1]): < 100 nM | IC50 (Human DP1 receptor; [2]): 100 to 5000 nM

CC(C)Oc1ccc(S(=O)(=O)N2CC(=O)C(n3nc(CC(=O)O)c4ccc(F)cc43)C2)cc1 (stereo not shown) [Compound I-27]
Ki (CRTH2; [1]): < 100 nM | IC50 (Human DP1 receptor; [2]): 100 to 5000 nM

CC(C)Oc1ccc(S(=O)(=O)N2CC=C(n3nc(CC(=O)O)c4ccc(F)cc43)C2)cc1 [Compound I-28]
Ki (CRTH2; [1]): 100 to 5000 nM | IC50 (Human DP1 receptor; [2]): < 100 nM

CC(C)Oc1ccc(S(=O)(=O)N2C[C@@H](C)[C@@H](n3nc(CC(=O)O)c4ccc(F)cc43)C2)cc1 [Compound I-29]
Ki (CRTH2; [1]): < 100 nM | IC50 (Human DP1 receptor; [2]): < 100 nM

CO[C@@H]1CN(S(=O)(=O)c2ccc(OC(C)C)cc2)C[C@@H]1n1nc(CC(=O)O)c2ccc(F)cc21 [Compound I-30]
Ki (CRTH2; [1]): 100 to 5000 nM | Ki (CRTH2): 140 nM | IC50 (Human DP1 receptor; [2]): 100 to 5000 nM

CC(C)Oc1ccc(S(=O)(=O)N2C[C@@H](C)[C@@H](n3nc(CC(=O)O)c4ccc(Cl)cc43)C2)cc1 [Compound I-33]
Ki (CRTH2): 2.1 nM

CC(C)Oc1ccc(S(=O)(=O)N2C[C@H](C)[C@@H](n3nc(CC(=O)O)c4cccc(F)c43)C2)cc1 [Compound I-70]
Ki (CRTH2; [1]): < 100 nM

Cc1ccc2c(CC(=O)O)nn([C@H]3CN(S(=O)(=O)c4ccc(OC(C)C)cc4)C[C@@]3(C)F)c2c1 [Compound I-89]
IC50 (Human DP1 receptor; [2]): < 100 nM

CCOc1ccc(S(=O)(=O)N2C[C@@H](n3nc(CC(=O)O)c4ccc(F)cc43)[C@@H](C)[C@@H]2C(N)=O)cc1 [Compound I-154]
IC50 (Human DP1 receptor; [2]): 100 to 5000 nM

CCOc1ccc(S(=O)(=O)N2C[C@@H](C)[C@@H](n3nc(CC(=O)OC(C)C)c4ccccc43)C2)cc1 [Compound I-257]
IC50 (Human DP1 receptor; [2]): 100 to 5000 nM

CC(C)Oc1ccc(S(=O)(=O)N2C[C@H](n3nc(CC(=O)O)c4ccc(F)cc43)C[C@@H]2COCC(O)CO)cc1 (stereo partly shown) [Compound I-281]
IC50 (Human DP1 receptor; [2]): 100 to 5000 nM

CCOc1ccc(S(=O)(=O)N2C[C@@H](C)[C@@H](n3nc(C(C)(OC)C(=O)O)c4ccccc43)C2)cc1 (stereo partly shown) [Compound I-286]
IC50 (Human DP1 receptor; [2]): < 100 nM

CCOc1ccc(S(=O)(=O)N2C[C@H](n3nc(CC(=O)O)c4ccccc43)[C@@](C)(F)C2)cc1 [Compound I-309]
IC50 (Human DP1 receptor; [2]): < 100 nM

CCOc1ccc(S(=O)(=O)N2C[C@H](n3nc(CC(=O)O)c4ccccc43)C[C@H]2C(N)=O)cc1 [Compound I-321]
IC50 (Human DP1 receptor; [2]): 100 to 5000 nM

CCOc1ccc(S(=O)(=O)N2C[C@@H](C)[C@@H](n3nc(C(C)(C)C(=O)O)c4ccccc43)C2)cc1 [Compound I-335]
IC50 (Human DP1 receptor; [2]): < 100 nM

CCOc1ccc(S(=O)(=O)N2C[C@@H](C)[C@@H](n3nc(C(F)C(=O)O)c4ccccc43)C2)cc1 (stereo partly shown) [Compound I-337]
IC50 (Human DP1 receptor; [2]): 100 to 5000 nM

CC(C)Oc1ccc(S(=O)(=O)N2C[C@H](n3nc(CC(=O)O)c4ccc(F)cc43)C[C@@H]2COc2ccccn2)cc1 [Compound I-339]
IC50 (Human DP1 receptor; [2]): 100 to 5000 nM

CC(C)Oc1ccc(S(=O)(=O)N2C[C@H](n3nc(CC(=O)O)c4ccc(F)cc43)C[C@@H]2COc2ccccc2F)cc1 [Compound I-340]
IC50 (Human DP1 receptor; [2]): 100 to 5000 nM

CCOc1ccc(S(=O)(=O)N2C[C@@H](n3nc(CC(=O)O)c4ccccc43)[C@@H]3COC[C@@H]32)cc1 [Compound I-367]
Ki (CRTH2; [1]): 100 to 5000 nM | Ki (CRTH2): 100 nM
